Measurements: patent publication US10730872B2, “Pesticidally active heterocyclic derivatives with sulphur containing sustitutents” (SYNGENTA PARTICIPATIONS AG, priority 2015, dated 2020)

Columns and labels:
Myzus persicae [1] = assay: Myzus persicae (Green Peach Aphid): Feeding/Contact Activity; format: in vivo; settings: foliar, 144 h, application rate of 200 ppm, sprayed sunflower leaf discs, aphid population of mixed ages, 6 days after infestation
Experimental: Sunflower leaf discs were placed onto agar in a 24-well microtiter plate and sprayed with aqueous test solutions prepared from 10,000 ppm DMSO stock solutions. After drying, the leaf discs were infested with an aphid population of mixed ages. The samples were assessed for mortality 6 days after infestation.

Diabrotica balteata = Diabrotica balteata (Corn Root Worm); format: in vivo; settings: 96 h, application rate of 200 ppm, sprayed maize sprouts, L2 larvae, 4 days after infestation, read-out: effect in at least one of the two categories (mortality or growth inhibition)
Experimental: Maize sprouts placed onto an agar layer in 24-well microtiter plates were treated with aqueous test solutions prepared from 10,000 ppm DMSO stock solutions by spraying. After drying, the plates were infested with L2 larvae (6 to 10 per well). The samples were assessed for mortality and growth inhibition in comparison to untreated samples 4 days after infestation.

Spodoptera littoralis [2] = assay: Spodoptera littoralis (Egyptian Cotton Leaf Worm), sprayed cotton leaf discs; format: in vivo; settings: foliar, 72 h, application rate of 200 ppm, L1 larvae, 3 days after infestation
Outline: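 Cotton leaf discs on agar sprayed with aqueous dilutions of 10,000 ppm DMSO stocks, dried, then infested with five L1 larvae. Mortality, anti-feeding and growth inhibition scored against untreated discs 3 days after infestation. Control recorded when any one category exceeds the untreated sample.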

Plutella xylostella = Plutella xylostella (Diamond Back Moth); format: in vivo; settings: 120 h, application rate of 200 ppm, artificial diet, L2 larvae, 5 days after infestation, read-out: effect in at least one of the two categories (mortality or growth inhibition)
Experimental: 24-well microtiter plates with artificial diet were treated with aqueous test solutions prepared from 10,000 ppm DMSO stock solutions by pipetting. After drying, the plates were infested with L2 larvae (10 to 15 per well). The samples were assessed for mortality and growth inhibition in comparison to untreated samples 5 days after infestation.

Myzus persicae [3] = assay: Myzus persicae (Green Peach Aphid). Intrinsic Activity; format: in vivo; settings: 120 h, test rate of 12 ppm, mixed with sucrose solution, Parafilm, 5 days after infestation
Experimental: Test compounds prepared from 10,000 ppm DMSO stock solutions were applied by pipette into 24-well microtiter plates and mixed with sucrose solution. The plates were closed with a stretched Parafilm. A plastic stencil with 24 holes was placed onto the plate and infested pea seedlings were placed directly on the Parafilm. The infested plate was closed with a gel blotting paper and another plastic stencil and then turned upside down. The samples were assessed for mortality 5 days after infestation.

Aedes aegypti = assay: Aedes Aegypti (Yellow Fever Mosquito); format: in vivo; settings: 200 ppm in ethanol, dry deposit in 12 well plates, adult females, after 48 h and/or 24 h
Experimental: Test solutions, at an application rate of 200 ppm in ethanol, were applied to 12 well tissue culture plates. Once the deposits were dry, five, two to five day old adult female Aedes aegypti were added to each well, and sustained with a 10% sucrose solution in a cotton wool plug. Assessment of knockdown was made one hour after introduction, and mortality was assessed at 24 and 48 hours after introduction.

[4] = test system: Frankliniella occidentalis; assay: Frankliniella occidentalis (Western Flower Thrips): Feeding/Contact Activity; format: in vivo; settings: foliar, 168 h, application rate of 200 ppm, sprayed sunflower leaf discs, population of mixed ages, 7 days after infestation
Experimental: (§1) Sunflower leaf discs were placed on agar in 24-well microtiter plates and sprayed with aqueous test solutions prepared from 10,000 DMSO stock solutions. After drying the leaf discs were infested with a Frankliniella population of mixed ages. The samples were assessed for mortality 7 days after infestation.

Euschistus heros = Euschistus heros (Neotropical Brown Stink Bug); format: in vivo; settings: 120 h, application rate of 200 ppm, sprayed soybean leaves, N2 nymphs, 5 days after infestation, read-out: effect in at least one of the two categories (mortality or growth inhibition)
Experimental: Soybean leaves on agar in 24-well microtiter plates were sprayed with aqueous test solutions prepared from 10,000 ppm DMSO stock solutions. After drying the leaves were infested with N2 nymphs. The samples were assessed for mortality and growth inhibition in comparison to untreated samples 5 days after infestation.

Tetranychus urticae = Tetranychus urticae (Two-Spotted Spider Mite): Feeding/Contact Activity; format: in vivo; settings: foliar, 192 h, application rate of 200 ppm, sprayed bean leaf discs, mixed population (mobile stages), 8 days after infestation
Experimental: Bean leaf discs on agar in 24-well microtiter plates were sprayed with aqueous test solutions prepared from 10,000 ppm DMSO stock solutions. After drying the leaf discs were infested with a mite population of mixed ages. The samples were assessed for mortality on mixed population (mobile stages) 8 days after infestation.

Bemisia tabaci = Bemisia tabaci (Cotton White Fly): Feeding/Contact Activity; format: in vivo; settings: foliar, 144 h, application rate of 200 ppm, sprayed cotton leaf discs, adult white flies, 6 days after incubation
Experimental: Cotton leaf discs were placed on agar in 24-well microtiter plates and sprayed with aqueous test solutions prepared from 10,000 ppm DMSO stock solutions. After drying the leaf discs were infested with adult white flies. The samples were checked for mortality 6 days after incubation.

Spodoptera littoralis [5] = assay: Spodoptera littoralis (Egyptian Cotton Leaf Worm), uptake by lettuce roots from agar; format: in vivo; settings: 144 h, test rate of 12.5 ppm, mixed with agar, absorbed by lettuce roots, Spodoptera eggs, 6 days after infestation, read-out: effect in at least one of the three categories (mortality, anti-feeding, or growth inhibition)
Outline: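 Compound from 10,000 ppm DMSO stock mixed into agar; lettuce seeds grew 7 days, taking compound up via roots into the lid plate. Cut leaves infested with Spodoptera eggs; mortality, anti-feedant effect and growth inhibition scored against untreated samples 6 days after infestation.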

Thrips tabaci = Thrips tabaci (Onion Thrips) Feeding/Contact Activity; format: in vivo; settings: foliar, 144 h, application rate of 200 ppm, sprayed sunflower leaf discs, thrips population of mixed ages, 6 days after infestation
Experimental: as §1, with “10,000 ppm” for “10,000”, “thrips” for “Frankliniella”, “6” for “7”

| melting point | Structure (SMILES) | mortality at 200 ppm (Myzus persicae [1]) | effect mortality or growth inhibition at 200 ppm (Diabrotica balteata) | percent control (mortality, anti-feeding effect or growth inhibition) at 200 ppm (Spodoptera littoralis [2]) | percent effect (mortality or growth inhibition) at 200 ppm (Plutella xylostella) | mortality at 12 ppm (Myzus persicae [3]) | pest or weed control at 200 ppm (Aedes aegypti) | mortality at 200 ppm [4] | percent effect (mortality or growth inhibition) at 200 ppm (Euschistus heros) | mortality at 200 ppm (Tetranychus urticae) | mortality at 200 ppm (Bemisia tabaci) | percent effect (mortality, anti-feeding or growth inhibition) at 12.5 ppm (Spodoptera littoralis [5]) | mortality at 200 ppm (Thrips tabaci) |
| --- | --- | --- | --- | --- | --- | --- | --- | --- | --- | --- | --- | --- | --- |
|  | CCSc1cc(NC(=O)C2CC2)cnc1-c1nc2cc(C(F)(F)F)n(CC)c(=O)c2n1C [Compound A59, N-[6-[5-ethyl-3-methyl-4-oxo-6-(trifluoromethyl)imidazo[4,5-c]pyridin-2-yl]-5-ethylsulfanyl-3-pyridyl]cyclopropanecarboxamide] | ≥ 80% | ≥ 80% | ≥ 80% | ≥ 80% | ≥ 80% |  |  |  |  |  |  |  |
|  | CCn1c(C(F)(F)F)cc2nc(-c3ncc(NC4CC4)cc3S(=O)(=O)CC)n(C)c2c1=O [Compound A1] | ≥ 80% | ≥ 80% | ≥ 80% | ≥ 80% |  | ≥ 80% | ≥ 80% | ≥ 80% | ≥ 80% |  |  |  |
| 232 to 234 °C | CCn1c(C(F)(F)F)cc2nc(-c3ncc(N(C(=O)C4CC4)S(C)(=O)=O)cc3S(=O)(=O)CC)n(C)c2c1=O [Compound A21, N-[6-[5-ethyl-3-methyl-4-oxo-6-(trifluoromethyl)imidazo[4,5-c]pyridin-2-yl]-5-ethylsulfonyl-3-pyridyl]-N-methylsulfonyl-cyclopropanecarboxamide] |  |  |  |  |  |  |  |  |  |  |  |  |
|  | CCS(=O)(=O)c1cc(Br)c(NC)nc1-c1nc2cc(C(F)(F)F)n(C3CC3)c(=O)c2n1C [Compound A52, 2-[5-bromo-3-ethylsulfonyl-6-(methylamino)-2-pyridyl]-5-cyclopropyl-3-methyl-6-(trifluoromethyl)imidazo[4,5-c]pyridin-4-one] | ≥ 80% | ≥ 80% | ≥ 80% | ≥ 80% |  |  |  | ≥ 80% |  | ≥ 80% | ≥ 80% | ≥ 80% |
|  | CCS(=O)(=O)c1cc(Br)c(N)nc1-c1nc2cc(C(F)(F)F)n(C3CC3)c(=O)c2n1C [Compound A44, 2-(6-amino-5-bromo-3-ethylsulfonyl-2-pyridyl)-5-cyclopropyl-3-methyl-6-(trifluoromethyl)imidazo[4,5-c]pyridin-4-one] | ≥ 80% | ≥ 80% | ≥ 80% | ≥ 80% |  |  |  | ≥ 80% |  | ≥ 80% | ≥ 80% | ≥ 80% |
